The subject of experiment [1] is Trichophyton mentagrophytes. Nature of the experiment: Antimicrobial in vivo activity (oral) in experimental guinea pig trichophytosis. The note with it: 1 x 2,5 mg/kg per day for 10 days; for Wirkung (in words): guinea pig trichophytosis; for Wirkung: guinea pigs infected on the back with Trichophyton mentagrophytes, signs of infection day 12 to 15 p.i. Further details: species or system Meerschweinchen der Rasse Pirbright-white; key to Wirkung: +++++: = sehr gute Wirkung = keine Infektionszeichen am 12. bis 15. Tag p.i.; ++++: = gute Wirkung = geringe Rötung, vereinzelt Schuppen; +++: = Wirkung = Rötung, Schuppen ohne Haarausfall; ++: = schwache Wirkung = Rötung, Schuppen, Haaraus-fall; +: = Spurwirkung = flächiger Haarausfall, entzündliche Hautreaktion; k.w.: = keine Wirkung = kein Unterschied zur unbehandelten Kontrolle. The protocol:
Weiße Meerschweinchen der Rasse Pirbright-white werden auf dem geschorenen, nicht skarifizierten Rücken mit einer Mikro- und Makrokonidien-Suspension von Trichophyton mentagrophytes infiziert.
Die infizierten Tiere werden beginnend mit dem Tag der Infektion 1 x täglich mit 2,5 mg/kg Körpergewicht der Präparate oral behandelt. Die Behandlung wird 10 Tage fortgesetzt; die Tagesdosis beträgt jeweils 1 mal 2,5 mg/kg Körpergewicht.
Bei unbehandelten Tieren entwickelt sich innerhalb von 12 Tagen p.i. das typische Bild einer Dermatophytose mit Rötung, Schuppung und Haarausfall bis zum totalen Integument-Defekt an der Infektionsstelle.

Experiment [2] concerns Candida albi-cans und sp. Put plainly: Antifungal in vitro activity (MIC), Kimmig medium. Type of experiment: cell-based, Candida albicans. The note with it: inoculum 5 x 10³ Keime/ml, 28 °C, 24 to 96 h, read-out: MHK-Werte (minimale Hemmkonzentration). The protocol:
(§1) Die in-vitro-Prüfungen wurden mit Keiminokula von durchschnittlich 5 x 10³ Keimen/ml Substrat durchgeführt. Als Nährmedium diente Kimmig-Medium.
(§2) Die Bebrütungstemperatur betrug 28 °C, die Bebrütungsdauer lag bei 24 bis 96 Stunden bei Hefen und 96 Stunden bei Dermatophyten und Schimmelpilzen.

The subject of another experiment is Micro-sporum canis. Put plainly: Antifungal in vitro activity (MIC), Kimmig medium. Type of experiment: cell-based. The note with it: Microsporum canis, inoculum 5 x 10³ Keime/ml, 28 °C, 96 h, read-out: MHK-Werte (minimale Hemmkonzentration). The protocol: as §1, §2
The subject of another experiment is Asper-gillus fumi-gatus. Put plainly: Antifungal in vitro activity (MIC), Kimmig medium. Type of experiment: cell-based. The note with it: Aspergillus fumigatus, inoculum 5 x 10³ Keime/ml, 28 °C, 96 h, read-out: MHK-Werte (minimale Hemmkonzentration). The protocol:
as §1, §2

The next experiment deals with Tricho-phyton mentagr. Put plainly: Antifungal in vitro activity (MIC), Kimmig medium. Type of experiment: cell-based. The note with it: Trichophyton mentagrophytes, inoculum 5 x 10³ Keime/ml, 28 °C, 96 h, read-out: MHK-Werte (minimale Hemmkonzentration). The method, then:
as §1, §2

In the next experiment the test system is Candida-Zellen. Put plainly: Antifungal in vivo activity (oral) in mouse candidiasis. The note with it: 2 x 5,0 mg/kg per day for 5 days; for Wirkung: mice infected i.v. with 1 x 10⁶ Candida cells, survivors on day 6 p.i.; for Wirkung (in words): mouse candidiasis. Set-up: species or system Mäuse vom Typ SPF-CF₁. The protocol: Mäuse vom Typ SPF-CF₁ werden intravenös mit 1 x 10⁶ logarithmisch wachsenden Candida-Zellen, die in physiologischer Kochsalzlösung suspendiert wurden, infiziert, Gleichzeitig mit der Infektion werden die Tiere mit jeweils 5,0 mg/kg Körpergewicht der Präparate oral behandelt.
Die Behandlung wird 5 Tage fortgesetzt; die Tagesdosis beträgt jeweils 2 mal 5,0 mg/kg Körpergewicht.
Unbehandelte Tiere sterben 3 bis 6 Tage post infektionem. Die Überlebensrate am 6.Tag post infektionem beträgt bei unbehandelten Kontrolltieren etwa 5 %.

The test system of a further experiment is Toru-lopsis gla-brata. Put plainly: Antifungal in vitro activity (MIC), Kimmig medium. The class given is cell-based, Torulopsis glabrata. The note with it: Nakaseomyces glabratus, inoculum 5 x 10³ Keime/ml, 28 °C, 24 to 96 h, read-out: MHK-Werte (minimale Hemmkonzentration). The protocol:
as §1, §2

≈ marks a conversion by molar mass, not a printed value.

As for `CC(C#N)C(O)(Cn1cncn1)c1ccc(Cl)cc1` (stereo not drawn) [(A), 3-(4-Chlorphenyl)-3-hydroxy-2-methyl-4-(1,2,4-triazol-1-yl)-butyronitril], the “Wirkung (in words)” value (in experiment [1]; in the experiment on Candida-Zellen) was “keine Wirkung” in each case. Moreover, the Wirkung result (in experiment [1]; in the experiment on Candida-Zellen) was “k.w” each time. The MIC was 16 to 32 µg/mL (≈ 57.8 to 116 µM) in experiment [2]; 32 µg/mL (≈ 116 µM) with Micro-sporum canis; 64 µg/mL (≈ 231 µM) in the experiment with Asper-gillus fumi-gatus; 32 µg/mL (≈ 116 µM) in the experiment on Tricho-phyton mentagr.; 64 µg/mL (≈ 231 µM) with Toru-lopsis gla-brata.
With `CC(C)(C#N)C(O)(Cn1cncn1)c1ccc(Cl)cc1` (stereo not drawn) [(I), 3-(4-Chlorphenyl)-2,2-dimethyl-3-hydroxy-4-(1,2,4-triazol-1-yl)-butyronitril], the “Wirkung (in words)” value (in experiment [1]; in the experiment with Candida-Zellen) was “gute Wirkung” throughout. The Wirkung result is “++++” in experiment [1] and “++++ (= gute Wirkung = 80 % Überlebende am 6.Tag.p.i.)” with Candida-Zellen. Further, the MIC in experiment [2] is 4 to 8 µg/mL (≈ 13.8 to 27.5 µM); with Micro-sporum canis, 4 to 8 µg/mL (≈ 13.8 to 27.5 µM); with Asper-gillus fumi-gatus, 64 µg/mL (≈ 220 µM); with Tricho-phyton mentagr., 4 to 8 µg/mL (≈ 13.8 to 27.5 µM); with Toru-lopsis gla-brata it was 32 to 64 µg/mL (≈ 110 to 220 µM).
